Structures are written as SMILES.

The test has as its target T1, purified human 15-lipoxygenase (Homo sapiens, UniProt P16050).
T1 sequence (P16050 1-662): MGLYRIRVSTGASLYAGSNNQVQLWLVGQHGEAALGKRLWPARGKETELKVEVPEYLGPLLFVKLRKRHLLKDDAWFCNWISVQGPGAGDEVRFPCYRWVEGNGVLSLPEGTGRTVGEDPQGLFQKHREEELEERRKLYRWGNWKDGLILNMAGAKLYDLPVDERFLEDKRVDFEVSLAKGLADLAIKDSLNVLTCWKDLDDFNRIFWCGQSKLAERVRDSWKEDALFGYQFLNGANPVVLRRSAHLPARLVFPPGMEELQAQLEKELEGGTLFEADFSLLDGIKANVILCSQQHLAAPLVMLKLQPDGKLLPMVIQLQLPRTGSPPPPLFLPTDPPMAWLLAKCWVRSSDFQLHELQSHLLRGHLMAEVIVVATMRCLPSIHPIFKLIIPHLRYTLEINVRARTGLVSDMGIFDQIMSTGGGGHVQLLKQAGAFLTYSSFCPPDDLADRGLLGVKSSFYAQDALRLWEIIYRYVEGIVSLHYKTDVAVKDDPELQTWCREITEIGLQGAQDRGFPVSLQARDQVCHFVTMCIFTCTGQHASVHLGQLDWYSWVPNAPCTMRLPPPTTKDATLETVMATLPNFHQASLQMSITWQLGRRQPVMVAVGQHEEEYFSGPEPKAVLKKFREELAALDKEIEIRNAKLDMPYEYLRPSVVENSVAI
As to the kind of experiment: 15-lipoxygenase inhibition assay (arachidonic acid oxidation, HPLC readout). The test is classed as biochemical. Conditions: arachidonic acid substrate, room temperature, PBS pH 7.4. As for the experimental part: The assay employed takes advantage of the ability of lipoxygenases to oxidize polyunsaturated fatty acids, containing a 1,4-cis-pentadiene configuration, to their corresponding hydroperoxy or hydroxyl derivatives. In this particular assay, the lipoxygenase was a purified human 15-lipoxygenase and the fatty acid was arachidonic acid. The assay is performed at room temperature (20-22° C.) and the following are added to each well in a 96-well microtiter plate:
a) 35 μL phosphate buffered saline (PBS) (pH 7.4); b) inhibitor (i.e. compound) or vehicle (0.5 μl DMSO); c) 10 μL of a 10× concentrated solution of 15-lipoxygenase in PBS. […] The plate is then incubated for 10 minutes at room temperature; e) the enzymatic reaction is terminated by the addition of 100 μl methanol; and f) the amount of 15-hydroperoxy-eicosatetraenoic acid or 15-hydroxy-eicosatetraenoic acid is measured by reverse phase HPLC.
The term IC50 denotes the concentration that gives 50% inhibition. `O=C(Nc1ccc([N+](=O)[O-])cn1)c1cc(Cl)[nH]n1` [Example 14, 5-Chloro-N-(5-nitropyridin-2-yl)pyrazole-3-carboxamide]: the IC50 turned out to be 0.248 µM.

`O=C(Nc1ccc(F)cn1)c1n[nH]c(C(F)(F)F)c1Cl` [Example 11, 4-Chloro-N-(5-fluoropyridin-2-yl)-5-(trifluoromethyl)pyrazole-3-carboxamide] yielded an IC50 of 0.31 µM.

In turn, `O=C(Nc1ccc(F)cn1)c1cc(C(F)F)[nH]n1` [Example 13, 5-(Difluoromethyl)-N-(5-fluoropyridin-2-yl)pyrazole-3-carboxamide] came in with an IC50 of 0.393 µM.

`O=C(Nc1ccc(C(F)(F)F)cn1)c1cc(Cl)[nH]n1` [Example 5, 5-Chloro-N-(5-(trifluoromethyl)pyridin-2-yl)pyrazole-3-carboxamide] yielded an IC50 of 0.3 µM.

As to `COc1ccc(NC(=O)c2cc(Cl)[nH]n2)nc1` [Example 29, 5-Chloro-N-(5-methoxypyridin-2-yl)pyrazole-3-carboxamide], the IC50 was found to be 0.122 µM.

`Cc1ccnc(NC(=O)c2cc[nH]n2)c1` [Example 44] gave an IC50 of 0.346 µM.

`Cc1nc(NC(=O)c2cc(Cl)[nH]n2)ccc1Br` [Example 6, N-(5-bromo-6-methylpyridin-2-yl)-5-chloropyrazole-3-carboxamide] returned an IC50 of 0.32 µM.

For the origin of these results see US20090143440A1, “Pyrazoles Useful in the Treatment of Inflammation” (BIOLIPOX AB, priority 2005, published 2009).
